Measurements published in BindingDB's records for patent US20250243194 (Adorx Therapeutics, 2025).

Experiments:
Experiment in all cases: Adenosine Receptor Time-Resolved Fluorescence Resonance Energy Transfer (TRFRET) Binding Assay
Adenosine receptor A1 = molecular target: T1, Adenosine receptor A1 (Homo sapiens, UniProt P30542)
T1 sequence (P30542 whole entry): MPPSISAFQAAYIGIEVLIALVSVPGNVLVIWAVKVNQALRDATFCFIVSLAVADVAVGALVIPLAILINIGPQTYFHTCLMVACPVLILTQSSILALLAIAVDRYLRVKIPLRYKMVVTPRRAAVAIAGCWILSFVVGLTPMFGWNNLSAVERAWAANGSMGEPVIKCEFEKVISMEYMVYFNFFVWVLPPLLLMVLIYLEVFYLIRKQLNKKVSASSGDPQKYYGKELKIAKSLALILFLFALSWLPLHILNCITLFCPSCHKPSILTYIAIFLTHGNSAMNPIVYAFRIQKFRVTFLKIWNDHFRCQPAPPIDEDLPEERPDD
Method: (§1) All FRET binding experiments were conducted at room temperature in white 384-well plates, in assay binding buffer containing 1× LabMed (Cisbio, France), 100 μg/mL saponin, 1% DMSO and 0.02% pluronic acid. Binding of the fluorescently labelled Adenosine receptor antagonist XAC (CA200645, FRET acceptor) to terbium-labelled A1, A2a, A2b and A3 adenosine receptors (FRET donors) was detected by time-resolved FRET due to the close proximity of the donor and acceptor in a binding event. To investigate the ability of unlabelled test compounds to bind to Adenosine A1, A2a, A2b and A3 receptors, dose response curves were constructed that determined the ability of a range of concentrations to inhibit the binding of 30 nM CA200645 to the A2b receptor and 100 nM CA200645 to the A1, A2a, and A3 receptor.Serial dilution (1:3 dilutions) of test compounds in neat DMSO and transfer of a 400 nL sample of test compound into the assay plate was carried out using the Mosquito (TTP Labtech, UK). The compound samples were incubated for 2 hours at room temperature with a fixed concentration of CA200645 defined for each receptor (see above) and CHO cell membranes containing the human Adenosine A1 (0.5 μg/well), A2a (0.3 μg/well), A2b (1 μg/well) or A3 (1 μg/well) receptor in 40 μL of assay buffer. Total and non-specific binding of CA200645 was determined in the absence and presence of 10 μM XAC, respectively. Following 2 hours incubation, the level of CA200645 binding was detected on a Pherastar FSX (BMG Labtech, Germany) using standard TR-FRET settings.

Adenosine receptor A2a = Adenosine receptor A2a (Homo sapiens, UniProt P29274)
Method: as §1

Adenosine receptor A2b = molecular target: T2, Adenosine receptor A2b (Homo sapiens, UniProt P29275)
T2 sequence (P29275 whole entry): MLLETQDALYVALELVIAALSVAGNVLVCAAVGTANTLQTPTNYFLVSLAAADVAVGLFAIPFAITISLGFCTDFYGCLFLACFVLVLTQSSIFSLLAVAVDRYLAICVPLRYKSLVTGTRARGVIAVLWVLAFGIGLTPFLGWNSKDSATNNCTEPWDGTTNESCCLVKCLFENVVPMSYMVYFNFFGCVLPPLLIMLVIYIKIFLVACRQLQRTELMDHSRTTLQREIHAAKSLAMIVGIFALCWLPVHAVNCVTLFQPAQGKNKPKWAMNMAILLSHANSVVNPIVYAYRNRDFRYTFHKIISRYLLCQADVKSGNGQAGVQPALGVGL
Method: as §1

Adenosine receptor A3 = molecular target: T3, Adenosine receptor A3 (Homo sapiens, UniProt P0DMS8)
T3 sequence (P0DMS8 whole entry): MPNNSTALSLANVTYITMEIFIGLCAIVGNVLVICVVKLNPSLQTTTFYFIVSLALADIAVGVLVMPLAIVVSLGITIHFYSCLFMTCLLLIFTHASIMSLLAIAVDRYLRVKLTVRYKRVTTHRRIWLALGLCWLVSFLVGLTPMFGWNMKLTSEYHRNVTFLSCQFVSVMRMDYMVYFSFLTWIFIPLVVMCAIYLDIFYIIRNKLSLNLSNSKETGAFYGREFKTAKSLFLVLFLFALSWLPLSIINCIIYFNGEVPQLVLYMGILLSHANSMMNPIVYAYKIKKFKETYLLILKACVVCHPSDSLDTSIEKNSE
Method: as §1

Adenosine receptor A2a, sequence (P29274 whole entry): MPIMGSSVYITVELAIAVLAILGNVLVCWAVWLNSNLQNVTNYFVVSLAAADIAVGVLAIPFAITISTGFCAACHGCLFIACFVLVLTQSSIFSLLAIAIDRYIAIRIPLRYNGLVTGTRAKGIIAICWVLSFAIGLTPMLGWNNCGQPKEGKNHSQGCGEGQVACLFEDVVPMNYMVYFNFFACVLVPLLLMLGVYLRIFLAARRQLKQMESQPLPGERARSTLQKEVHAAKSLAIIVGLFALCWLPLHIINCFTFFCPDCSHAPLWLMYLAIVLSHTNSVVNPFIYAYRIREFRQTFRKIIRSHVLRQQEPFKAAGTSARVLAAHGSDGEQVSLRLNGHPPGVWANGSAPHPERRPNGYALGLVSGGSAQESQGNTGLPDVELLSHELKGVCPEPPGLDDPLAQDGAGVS

Row | SMILES | Ki (Adenosine receptor A1) [nM] | Ki (Adenosine receptor A2a) [nM] | Ki (Adenosine receptor A2b) [nM] | Ki (Adenosine receptor A3) [nM]
1 | Cc1ccnc2ccc(-c3sc(NC(=O)N4CC5(COC5)C4)nc3-c3cccc(C#N)c3)cc12 [US20250243194, Example 11] | 0.4 | 0.04 | 0.5 | 
2 | Cc1ncnc2ccc(-c3sc(NC(=O)N4CCNCC4)nc3-c3cccc(C#N)c3)cc12 [US20250243194, Example 7.21] | 9 | 0.3 | 1.6 | 
3 | Cc1ncnc2ccc(-c3sc(NC(=O)N4C[C@@H]5OCCN(C)[C@@H]5C4)nc3-c3cccc(C#N)c3)cc12 [US20250243194, Example 7.20] | 57 | 0.2 | 1.4 | 
4 | Cc1ncnc2ccc(-c3sc(NC(=O)N4CCC(N(C)C)CC4)nc3-c3cccc(C#N)c3)cc12 [US20250243194, Example 7.6] | 62 | 0.55 | 2.5 | 
5 | Cc1ncnc2ccc(-c3sc(NC(=O)N4CCN(C)CC4)nc3-c3cccc(C#N)c3)cc12 [US20250243194, Example 7.22] | 20 | 0.42 | 3 | 
6 | Cn1cc(-c2sc(NC(=O)N3CC4(COC4)C3)nc2-c2cccc(C#N)c2)c2cccnc21 [US20250243194, Example 16] | 122 | 5.17 | 9.8 | 2130
7 | COc1ncnc2ccc(-c3sc(NC(=O)N4CC5(COC5)C4)nc3-c3cccc(C#N)c3)cc12 [US20250243194, Example 12] | 0.2 | 0.17 | 0.8 | 
